Literature values, collected in US12161617B2, “Methocarbamol compositions and related methods” (Exela Sterile Medicines LLC, priority 2014, dated 2024).

Compound: COc1ccccc1OCC(O)COC(N)=O (centres unmarked) [methocarbamol, 3-(2-methoxyphenoxy)-1,2-propanediol 1-carbamate]
- differences with respect to methocarbamol absorption (patients undergoing maintenance haemodialysis vs normal subjects): no significant differences
- relative systemic availability in patients (renal dialysis patients relative to normal subjects): 113%
